Like-named read-outs stand apart in the source and are kept apart here.
How the values were obtained:
[1] = system: neuronal SynCre+ Pank1,2 dKO mice; assay: Survival, weight gain and physiology of neuronal SynCre+ Pank1,2 dKO mice on Compound 1 chow; assay type: in vivo, mouse; conditions: 75 ppm chow
Text: All procedures were reviewed and approved by the St. Jude Children's Research Hospital Institutional Animal Care and Use Committee. […] The mice were maintained at room temperature, humidity 50±10% and a 14/10-hour light/dark cycle. […] Water was supplied ad libitum. Mice were randomized into the treatment arms at weaning.
Neuron-specific deletion of Pank1 and Pank2 was confirmed by PCR genotyping of brain and liver postmortem as described by Sharma et al.

[2] = Pharmacokinetic evaluation in plasma of male BALB/c mice
in vivo = conditions: male, BALB/c, mouse, plasma; for bioavailability: oral
[3] = system: Pcca−/−PCCA(A138T)tg/0 (PA) mice; assay: Short-term (3-day gavage) PZ-3022 treatment of PA mice: liver CoA pools and carnitines
[4] = system: Pcca−/−PCCA(A138T)tg/0 (PA) mice
C57BL/6J mice = assay: Liver total CoA and drug exposure in C57BL/6J mice (gavage or chow)
[5] = system: Pcca−/−PCCA(A138T)tg/0 (PA) mice; assay: TCA cycle intermediates in urine of PZ-3022-treated PA mice; assay type: in vivo, mouse; conditions: PZ-3022 therapy
Procedure: FIGS. 6A-6B show TCA cycle intermediates in plasma and urine of treated PA mice. Urinary TCA cycle metabolites eliminated over 24 h were quantified by mass spectrometry and normalized to mouse body weight. […] Three male (blue) and three female (red) mice were used for each determination.
(§1) Animal experiments. […] Water was supplied ad libitum.
Metabolites in urine and plasma. Water was added to a 24-h urine sample to a final volume of 1 ml for each mouse. To 100 μl of urine or 20 μl of plasma, warfarin standard was added at a final concentration of 0.2 μM and the sample was incubated at −80° C. for 1 hour. The sample was centrifuged at 6000×g for 10 minutes to remove precipitants and the supernatant was analyzed by LC/MS/MS. […] Solvent A was 0.1% formic acid in water, and Solvent B was acetonitrile+0.1% formic acid. […] The MRMs for metabolites in either the positive or negative mode were taken from. The MRMs for the warfarin internal standard were: negative mode, 307.1/161.0; and positive mode, 309.1/163.0. […] The relative amount of metabolite was normalized to the amount of warfarin. To improve glycine detection, this metabolite was measured after derivatization with benzoyl chloride using the technology and MRMs described.

wild-type mice = assay: Effect of PZ-3022 chow on liver CoA, amino acids and TCA metabolites in wild-type mice; assay type: in vivo, mouse
Procedure: FIGS. 20A-20E show liver CoASH (20A), liver C2-CoA (20B), liver C3-CoA (20C), liver C3:C2-CoA ratio (20D), and plasma and urine amino acid levels (20E). Number of mice in each group are shown in parenthesis. Amino acids were measured by mass spectrometry using warfarin as an internal standard except for glycine, which was measured as its benzoyl derivative. […] Two male (blue) and three female (red) mice were used for each determination.
Urinary TCA cycle metabolites eliminated over 24 h were quantified by mass spectrometry and normalized to mouse body weight. […] Male (blue) and female (red) mice were used for each determination. Number of mice in each group are shown in parenthesis.
as §1

C3A cells = assay: Total cellular CoA in C3A cells; assay type: cell-based, human; conditions: 10 μM, 24 h
Procedure: Cell culture. Human C3A (HepG2/C3A) cells (#CRL-1074) were purchased from ATCC® and maintained in DMEM supplemented with 2 mM glutamine, 10% fetal bovine serum (Atlanta Biologicals), 50 U/ml penicillin and […] streptomycin. HEK293T cells (ATCC, #CRL-3216) were used for expression of human PCCA protein standard and were maintained in DMEM plus supplements as described above. Each cell line was confirmed to be mycoplasma-free. […] DMSO alone was added to control cultures. Culture medium was aspirated off the dish, cells were quickly washed with ice-cold phosphate-buffered saline that was quickly aspirated off the dish, and cells were quickly washed again with ice-cold water that was aspirated off to remove residual saline. Ice-cold water (1 ml) was added to the culture dish, cells were scraped into the cold water and the cell suspension was transferred to a glass test tube containing 400 μl of […] KOH and 1.5 ml water for analysis of total CoA content.

[6] = 10 or 30 mg/kg plus 50 mg/kg pantothenate, 3 doses
[7] = 75 ppm chow to day 70, male and female
[8] = 24 h urine normalized to body weight

**Q.** What does the source list for `O=C(Cc1ccc(C2CC2)c(F)c1)N1CCN(c2ccc(Cl)nn2)CC1` [Compound 1]?
**A.** Growth rate, lifespan and movement dysfunction [1]: improvement of growth rate, lifespan, and movement dysfunction; Weight gain, greater than untreated dKO ([1]; at the time of evaluation): 10%

**Q.** With `CC(C)c1ccc(CC(=O)N2CCN(c3ccc(C#N)nn3)CC2)cc1` [PZ-2891] as the compound, how does the AUCinf ([2]; i.v. 2 mg/kg) read?
**A.** 611.5 ng·h/mL

**Q.** And the AUClast ([2]; i.v. 2 mg/kg)?
**A.** 608.6 ng·h/mL

**Q.** And the CL ([2]; i.v. 2 mg/kg)?
**A.** 54.5 mL/min/kg

**Q.** What about the T1/2 ([2]; i.v. 2 mg/kg) of the same compound?
**A.** 18 min

**Q.** What about the Vss ([2]; i.v. 2 mg/kg) of the same compound?
**A.** 0.9 L/kg

**Q.** What about the AUCinf ([2]; p.o. 10 mg/kg) of the same compound?
**A.** 1424.0 ng·h/mL

**Q.** And the AUClast ([2]; p.o. 10 mg/kg)?
**A.** 1397.8 ng·h/mL

**Q.** And the “C0/Cmax (Cmax)” value ([2]; p.o. 10 mg/kg)?
**A.** 1886.5 ng/mL

**Q.** What about the Tmax ([2]; p.o. 10 mg/kg, 30% Captisol, male BALB/c mice, plasma) of the same compound?
**A.** 18 min

**Q.** And the Cmax (in vivo; iv, 2 mg/kg)?
**A.** 2810 ng/mL

**Q.** What about the bioavailability (in vivo; 10 mg/kg) of the same compound?
**A.** 46%

**Q.** For `N#Cc1ccc(N2CCN(C(=O)Cc3ccc(C4CC4)cc3)CC2)nn1` [PZ-3022, 6-(4-(2-(4-cyclopropylphenyl)acetyl)piperazin-1-yl)pyridazine-3-carbonitrile], which “Liver total CoA” value ([3]; 10 and 30 mg/kg, 3 doses, fluorescent derivatization) is on record?
**A.** significant, dose-dependent elevation

**Q.** And the “Liver C2-CoA” value [3, 6]?
**A.** increased

**Q.** And the “Liver C3-CoA” value [3, 6]?
**A.** decreased but was not eliminated

**Q.** What about the “Liver CoASH” value ([3]; 10 or 30 mg/kg plus 50 mg/kg pantothenate, 3 doses at 24 h, 4 h after last dose) of the same compound?
**A.** significantly elevated

**Q.** What about the “Liver CoASH” value ([4]; 75 ppm PZ-3022 + 1000 ppm pantothenate chow from day 21 to day 70, males and females) of the same compound?
**A.** restored liver CoASH levels to wild-type

**Q.** And the “Hepatic C3-CoA” value ([4]; 75 ppm chow to day 70)?
**A.** significant drop

**Q.** What about the “Liver C2-CoA” value ([4]; 75 ppm chow to day 70) of the same compound?
**A.** restored to wild-type levels

**Q.** And the “Liver C2-carnitine” value ([4]; 75 ppm chow to day 70)?
**A.** did not exhibit significant increases

**Q.** And the Liver carnitine ([4]; 75 ppm chow to day 70)?
**A.** did not exhibit significant increases

**Q.** What about the “Plasma C3-carnitine” value ([4]; 75 ppm chow to day 70, female mice) of the same compound?
**A.** reduced

**Q.** And the “Liver C3-carnitine” value [4, 7]?
**A.** significantly decreased

**Q.** What about the “Plasma C2-carnitine” value [4, 7] of the same compound?
**A.** significantly increased

**Q.** And the Plasma carnitine [4, 7]?
**A.** increase

**Q.** And the “Plasma C3-carnitine” value ([4]; 75 ppm chow to day 70, male mice)?
**A.** the same in the treated and untreated male mice

**Q.** And the “Heart total CoA” value ([4]; PZ-3022 chow until 70 days of age)?
**A.** increased

**Q.** What about the “Reduction in C3-CoA in liver” value ([4]; PZ-3022 therapy) of the same compound?
**A.** 50%

**Q.** And the “Elevation of hepatic total CoA” value (C57BL/6J mice; 10 mg/kg oral gavage every 24 h for three days, 4 h after last dose)?
**A.** slightly more potent in elevating CoA than PZ-2891

**Q.** What about the “Total liver CoA versus dose in chow” value (C57BL/6J mice; 7.5, 37.5 and 75 ppm in chow with 1000 ppm pantothenate, 1 week) of the same compound?
**A.** dose response relationship

**Q.** And the “Plasma and liver PZ-3022 levels versus dose in chow” value (C57BL/6J mice; 7.5, 37.5 and 75 ppm in chow, 1 week)?
**A.** dose-dependent increase in drug

**Q.** What about the “Hepatic CoA levels at 24 h” value (C57BL/6J mice; gavage) of the same compound?
**A.** returned to the pre-dose level

**Q.** And the “Time at which elevation of liver CoA begins after administration” value (C57BL/6J mice; gavage, C57BL/6J male mice)?
**A.** 2 h

**Q.** And the “Time up to which elevation of liver CoA is maintained” value (C57BL/6J mice; gavage, C57BL/6J male mice)?
**A.** up to 8 h

**Q.** What about the “Circulating PZ-3022 at 24 h” value (C57BL/6J mice; gavage, plasma) of the same compound?
**A.** not detected

**Q.** And the “Parent drug levels in plasma and liver” value (C57BL/6J mice; same oral dosage, 75 ppm chow for 4 weeks)?
**A.** higher levels of circulating (FIG. 16C) and liver (FIG. 16D) PZ-3022 compared to PZ-2891

**Q.** What about the AUC(0-t) (in vivo; iv, 2 mg/kg) of the same compound?
**A.** 2960 ng·h/mL

**Q.** What about the Cmax (in vivo; iv, 2 mg/kg) of the same compound?
**A.** 3290 ng/mL

**Q.** And the bioavailability (in vivo; 10 mg/kg)?
**A.** 100%

**Q.** What about the AUC(0-t) (in vivo; po, 10 mg/kg) of the same compound?
**A.** 16900 ng·h/mL

**Q.** What about the “Reduction in urinary methylmalonate” value ([5]; 24 h urine) of the same compound?
**A.** 47%

**Q.** What about the “Reduction of urinary malate” value ([5]; 24 h urine) of the same compound?
**A.** 80%

**Q.** What about the Urine citrate level [5, 8] of the same compound?
**A.** significantly reduced

**Q.** And the Urine malate level [5, 8]?
**A.** significantly reduced

**Q.** And the Urine methylmalonate level [5, 8]?
**A.** significantly reduced

**Q.** And the “Urine α-ketoglutarate level” value [5, 8]?
**A.** significantly reduced

**Q.** And the “Plasma and urine TCA cycle-related metabolite levels” value (wild-type mice; treated vs untreated wild-type mice)?
**A.** no differences

**Q.** What about the “Liver C3-CoA” value (wild-type mice; wild-type mice on PZ-3022 chow) of the same compound?
**A.** not altered

**Q.** And the “Liver CoASH” value (wild-type mice; wild-type mice on PZ-3022 chow)?
**A.** increased as expected

**Q.** What about the “Liver acetyl-CoA” value (wild-type mice; wild-type mice on PZ-3022 chow) of the same compound?
**A.** increased as expected

**Q.** What about the “Plasma and urine amino acids” value (wild-type mice; wild-type mice on PZ-3022 chow) of the same compound?
**A.** not changed with the exception of histidine being lower in plasma and higher in urine

**Q.** What about the “Elevation of total cellular CoA” value (C3A cells) of the same compound?
**A.** just as effective at raising total CoA levels in cultured cells as PZ-2891
